Measurements from patent US20220111019A1, “BRCA1 MODULATING COMPOUNDS, FORMULATIONS THEREOF, AND USES THEREOF” (VIRGINIA TECH INTELLECTUAL PROPERTIES, INC., priority 2018, published 2022).
Entries after “also recorded” stand apart in the source; their conditions may differ.

How the values were obtained:
[1] = system: p53R306; assay: Western blot quantification of p53 in lysates of treated HCC1937 cells; assay type: cell-based, human; conditions: HCC1937 cell lysates; for decrease in p53 level: single treatment (ML364 or H2O2)
Procedure: (§1) Cell lysate preparations. For whole cell lysate preparations, HCC1937 cells were treated by adding 1 mM H2O2 to the culture media for 10-20 minutes, while incubating cells at 37° C. and 5% CO2. Following each incubation time, cells were washed with 1× PBS (Sigma) to eliminate residual H2O2. The cells were then treated with 7 μM-9 μM ML364 (Axon Medchem) for up to 48 hours at 37° C. and 5% CO2. Control cells were cultured in media lacking H2O2 and/or ML364 during the same time period. Cells were collected and washed with ice-cold 1× PBS once followed by centrifugation at 500×g for 5 minutes. Cell pellets were lysed by resuspending the pellets in buffer solution containing 20 mM HEPES (pH 6.8), 150 mM NaCl, 2.5 mM CaCl2, 2.5 mM MgCl2, 1 mM EDTA, 2% Nonidet-P40 (NP40), 1% Nadeoxycholate, 2× protease inhibitors (Sigma), 1× phosphatase inhibitors (Sigma), and 8% glycerol. The lysis mixture was incubated on ice for 30 minutes and centrifuged at 21,000×g for 15 minutes at 4° C. The supernatants were collected and protein concentrations were quantified using the standard Pierce Bradford assay.
(§2) SDS-Page, immunoblotting, and densitometry measurements. Protein fractions were also analyzed by SDS-PAGE denaturing gels followed by staining with SimplyBlue SafeStain solution (Invitrogen) or Western blotting as previously described (10). For Western blot analysis, the following primary antibodies were used: BRCA1 (C-20; Santa Cruz Biotechnology, sc-642), ubiquitin-pAb (Enzo Life Sciences, ADI-SPA-200), p53 (DO-1; Santa Cruz Biotechnology, sc-126), K63-linkage specific polyubiquitin (D7A11; Cell Signaling, #5621) and p-actin (Sigma-Aldrich, A5441). Western blot quantification was performed using Image Labrm Software (Bio-Rad). The intensity of each band was selected using the volume tool. Local subtraction and linear regression methods were implemented to eliminate the local background values and to quantify the band intensities.

[2] = system: 8-Oxo-Guanine (8-Oxo-G) accumulation in HCC1937 cells; assay: Immunofluorescence detection of 8-Oxo-Guanine DNA lesions; assay type: cell-based, human; conditions: for 8-Oxo-G accumulation in and around the nucleus: single treatment (ML364 in IC50 range or 1 mM H2O2 10 minutes)
Procedure: Fluorescence microscopy. The production of 8-Oxo-Guanine (8-Oxo-G) DNA lesions was detected by fluorescence imaging as previously described (10, 11). Briefly, HCC1937 cells (about 40,000 cells/chamber) were plated in an eight-chamber slide and incubated at 37° C. and 5% CO2 overnight. Cells were treated with complete culture media containing 1 mM H2O2 for 10-20 minutes to induce oxidative damage in the nucleus. Cells were then wash with 1× PBS and treated with ML364 (7 μM-9 μM) for up to 48 hours at 37° C. and 5% CO2. Control cells were cultured in media without H2O2 and ML364 during the same time period. Cells were washed with standard PBS solution and fixed with 4% paraformaldehyde (Electron Microscopy Sciences) for 15 minutes. The fixed cells were permiabilized by PBS solution containing 0.5% Triton X-100 (Sigma) for 10 minutes. After 1-hour blocking step with PBS supplemented with 10% normal goat serum (Jackson Immuno Research) and 0.2% Triton X-100, cells were incubated with anti-8-OxoG DNA Lesion (483.15; Santa Cruz Biotechnology) at 4° C. overnight. The 8-OxoG DNA lesions were detected with goat anti-mouse IgM-TR (Santa Cruz Biotechnology) and nuclei were stained with Hoechst 33342. An inverted fluorescence microscope (Zeiss Axio Vert.A1; Carl Zeiss Microscopy) was used to image the cells.
To determine the effect of ML364 on genomic stability, we performed immunofluorescent imaging on HCC1937 breast cancer cells to detect 8-Oxo-Guanine (8-Oxo-G) (FIG. 13C). The nuclear accumulation of 8-Oxo-G in cells indicates deficiencies in DNA damage repair (10, 11). Cells were treated with H2O2 to induce oxidative DNA damage. The ML364 drug was then administered to the cells in the IC50 range. The accumulation of 8-Oxo-G was detected using monoclonal antibodies against the substrate and fluorescently-labeled secondary antibodies. […] Under oxidative stress conditions, there was a minor degree of 8-Oxo-G detected in nuclear region following 10 minutes of treatment. […]

[3] = system: HCC1937 cells; assay: MTS cell viability assay after H2O2 and/or ML364 treatment; assay type: cell-based, human; conditions: 1 mM H2O2 10 min, vs untreated cells
Procedure: (§3) Cell viability and proliferation assays. To determine cellular viability, we used the CellTiter 96® AQueous One Solution Cell Proliferation Assay (MTS; Promega). HCC1937 were seeded (about 4000 cells per well) in a 96-well plate at 37° C. and 5% CO2 overnight. Following a 10-minute incubation with culture media containing 1 mM H2O2, cells were washed with PBS solution and further treated with 7 μM ML364 for 24 hours at 37° C. with 5% CO2. Control cells were cultured in media lacking H2O2 and/or ML364 during the same time period. Culture media and containing MTS reagent was added to each well. The titer plate was incubated 37° C. and 5% CO2 for 1-4 hours. Absorbance values were measured at 490 nm using iMark microplate reader (Bio-Rad). MTS was also used to determine cell growth following ML364 treatment. HCC1937 cells were plated (about 1500 cells per well) in a 96-well plate at 37° C. and 5% CO2 overnight. Cells were treated with DMSO and ML364 at the different doses (2.5 μM-80 μM). After 3 days of incubation, cell viability was measured using the MTS reagent. Cellular survival was calculated by dividing the absorbance of the treated groups by those of the untreated groups (DMSO). Values for the half-maximal inhibitory concentration (IC50) were obtained using Prism software package (GraphPad).
Targeting cancer cells that express mutated BRCA1. As described elsewhere herein, mutated BRCA1 can be fine-tuned in vitro. The application of this aspect of the techology to treat cancer cells was evaluated. Enhancing the activity of tumor suppressors in healthy cells can facilitate their growth and resilience. Conversely, treating cancer cells with drugs that limit DNA repair may lessen their survival. Poly(ADP-Ribose) Polymerase (PARP) inhibitors have been used to treat BRCA1-related cancers (25-28). A limited-repair paradigm approach was developed and used treated breast cancer cells (HCC1937 line) with the DUB inhibitor, ML364 (Axon Ligands™). […] The viability of treated cells and untreated cells was quantified using MTS assay measurements.

[4] = system: HCC1937 cells; assay: MTS cell growth assay after ML364 treatment (IC50); assay type: cell-based, human; conditions: 3 days of incubation, doses 2.5 μM-80 μM, read-out: half maximal inhibitory concentration (IC50) range
Procedure: as §3, with “Cells were treated with DMSO and ML364 at the different doses (2.5 μM-80 μM).” left out, “Values for the half-maximal inhibitory concentration (IC50) were obtained using Prism software package (GraphPad).” left out
Targeting cancer cells that express mutated BRCA1. […] The application of this aspect of the techology to treat cancer cells was evaluated. […] The viability of treated cells and untreated cells was quantified using MTS assay measurements.

[5] = system: mutated BRCA1; assay: Western blot quantification of BRCA1 in lysates of treated HCC1937 cells; assay type: cell-based, human; conditions: HCC1937 cell lysates; for decrease in BRCA1 level: single treatment (ML364 or H2O2)
Procedure: as §1, §2

[6] = system: p53; assay: Ubiquitin ligase assay in T98G nuclear extracts; assay type: biochemical, human; conditions: T98G nuclear reaction mixtures, 37° C., 1 hour, vs control samples
Procedure: Ubiquitin ligase assay. Aliquots of DUB-treated or “restored” BRCA1-BARD1 (0.2 mg/ml) were incubated with 10 μM ML364 (USP2 inhibitor) at 37° C. for 1 hour to halt USP2 activity. Samples were then stored overnight at 4° C. The restored BRCA1-BARD1 fractions were added in varying amounts to soluble nuclear extracts prepared from T98G cells. T98G cells naturally produced low levels of BRCA1. Control samples lacked restored BRCA1-BARD1. The reaction mixtures were incubated in a water bath at 37° C. for 1 hour.
Wild-type p53-caught in the act of repair. The extent to which restored BRCA1 could enhance the ubiquitin ligase activity of cells with inherently low levels of BRCA1 (T98G line) (FIGS. 16A-16C) was evaluated. Quantities of restored BRCA1-BARD1 were added to nuclear reaction mixtures prepared from T98G cells, and changes in ubiquitination were assessed over multiple experiments (FIG. 12A). To simplify the results, modifications to the p53 monomer was first evaluated. According to Western blots, full-length p53 migrated at about 50 kDa while ubiquitnated monomers migrated close to about 68 kDa (FIGS. 12B and 16A-16C). Proteins receiving K63-linked ubiquitin adducts are often involved in autophagy and DNA repair (22), (23), (24). […] As the T98G cells naturally produced little BRCA1, we attributed the increase in ubiquitin ligase activity to the restored BRCA1-BARD1 supplement.

[7] = system: BRCA1; conditions: HCC70 cells, 1 mM H2O2, replicate experiments
Procedure: (§4) Authentication of cells, cell culture, and protein enrichment. Breast cancer cells (HCC70 and HCC1937 lines) used in this study were purchased from the American Type Culture Collection (ATCC) and independently characterized by ATCC as being triple negative primary ductal carcinoma cells. For all experiments, cells were promptly used within 6 months of resuscitation. Cells were cultured in RPMI-1640 (Mediatech) supplemented with 10% fetal bovine serum (ATCC) and 0.5× penicillin-streptomycin (Thermo Fisher) at 37° C. and 5% CO2 environment. BRCA1-BARD1 complexes were enriched as previously described (25). Briefly, about 1,000,000 cells were collected using Trypsin-EDTA (Thermo Fisher) followed by centrifugation (500×g, 5 minutes). For experiments involving hydrogen peroxide (H2O2), cells were collected with cell scrapers after treated with 1 mM of H2O2 (Sigma Aldrich) for 40 minutes at 37° C. and 5% CO2. Sub-cellular fractions (cytoplasmic and nuclear) were separated using the NE-PER kit (Thermo Scientific). The soluble nuclear material was incubated with Ni-NTA agarose beads (Qiagen) and incubated with rotation for 1 hour at 4° C. The beads were washed with five bed volumes of 20 mM HEPES buffer (pH 7.2, 140 mM NaCl, 2 mM CaCl2, 2 mM MgCl2 and 5 mM imidazole).

[8] = system: BARD1; conditions: HCC70 cells, 1 mM H2O2, replicate experiments
Procedure: as §4

Compound | decline in p53 level, combination of H2O2 and ML364 ([1]; H2O2 then ML364) | decrease in p53 level [1] | 8-Oxo-G accumulation, combination of H2O2 and ML364 ([2]; 1 mM H2O2 then ML364 in IC50 range, up to 48 hours) | 8-Oxo-G accumulation in and around the nucleus [2] | decline in viability, combined treatment ([3]; then 7 μM ML364 24 hours) | decrease in viability ([3]; ML364 and H2O2 given separately, 7 μM ML364 24 hours) | IC50 [4] | decline in BRCA1 level, combination of H2O2 and ML364 ([5]; H2O2 then ML364) | decrease in BRCA1 level [5] | increase in K63-type ubiquitin adducts on p53 (ubiquitination of p53) [6] | decrease in BRCA1 level [7] | decrease in BARD1 level [8] | cytotoxicity at 1000 µM ([3]; Homo sapiens, ML364 and H2O2 given separately, 7 μM ML364 24 hours, read-out: decrease in viability)
Cc1ccc(S(=O)(=O)Nc2cc(C(F)(F)F)ccc2C(=O)Nc2nc(-c3ccccc3)cs2)cc1 [ML364] | about 50% | about 30% | greatest 8-Oxo-G buildup; also recorded: greatest degree; also recorded: higher level | more abundant; also recorded: higher level | about 70% | about 50% | 7 to 10 µM | about 50% | about 30% | – | – | – | –
wild-type BRCA1-BARD1: wild type BRCA1-BARD1 heterodimer used as supplement for comparison | – | – | – | – | – | – | – | – | – | about 24% | – | – | –
OO [H2O2, hydrogen peroxide] | – | 15-20% | – | minor degree | – | – | – | – | 15-20% | – | 10-20% | 10-20% | ~50%
